# Active and inactive are the calls of the source. The calls are words filed in the database; no cut-off is given here.
# What was measured:
# HeLa [1] = assay: Induction of cell cycle arrest in human HeLa cells assessed as accumulation of cells at S phase at 1 uM measured after 48 hrs by propidium iodide staining based flow cytometry analysis (reference value: 1.0%); assay type: functional
# HeLa [2] = assay: Induction of cell cycle arrest in human HeLa cells assessed as accumulation of cells at G0/G1 phase at 1 uM measured after 48 hrs by propidium iodide staining based flow cytometry analysis (reference value: 85.6%); assay type: functional
# HeLa [3] = assay: Induction of apoptosis in human HeLa cells assessed as viable cells at 1 uM measured after 48 hrs by annexin V-FITC based propidium iodide dual staining based flow cytometry analysis (reference value: 81.7%); assay type: functional; conditions: read-out: Activity
# HeLa [4] = assay: Induction of cell cycle arrest in human HeLa cells assessed as accumulation of cells at subG1 phase at 5 uM measured after 48 hrs by propidium iodide staining based flow cytometry analysis (reference value: 6.8%); assay type: functional
# HeLa [5] = assay: Induction of cell cycle arrest in human HeLa cells assessed as accumulation of cells at G2/M phase at 1 uM measured after 48 hrs by propidium iodide staining based flow cytometry analysis (reference value: 6.9%); assay type: functional
# HeLa [6] = assay: Induction of apoptosis in human HeLa cells assessed as early apoptotic cells at 5 uM measured after 48 hrs by annexin V-FITC based propidium iodide dual staining based flow cytometry analysis (reference value: 13.8%); assay type: functional
# HeLa [7] = assay: Induction of cell cycle arrest in human HeLa cells assessed as accumulation of cells at G0/G1 phase at 5 uM measured after 48 hrs by propidium iodide staining based flow cytometry analysis (reference value: 85.6%); assay type: functional
# K562 [8] = assay: Anticancer activity against human K562 cells assessed as inhibition of cell growth measured after 48 hrs by MTT assay; assay type: functional, cell-based; conditions: K562, 48 h
# [9] = Cytotoxicity against HEK293 cells assessed as inhibition of cell growth measured after 48 hrs by MTT assay; assay type: toxicity, cell-based; conditions: human
# K562 [10] = assay: Downregulation of MCL-1 expression in human K562 cells measured after 48 hrs by RT-qPCR analysis; assay type: functional, cell-based; conditions: dose 1-5 µM
# HeLa [11] = assay: Induction of apoptosis in human HeLa cells assessed as necrotic cells at 5 uM measured after 48 hrs by annexin V-FITC based propidium iodide dual staining based flow cytometry analysis (reference value: 1.0%); assay type: functional
# DU-145 = assay: Anticancer activity against human DU-145 cells assessed as inhibition of cell growth measured after 48 hrs by MTT assay; assay type: functional, cell-based; conditions: DU-145, 48 h
# HeLa [12] = assay: Induction of apoptosis in human HeLa cells assessed as early apoptotic cells at 1 uM measured after 48 hrs by annexin V-FITC based propidium iodide dual staining based flow cytometry analysis (reference value: 13.8%); assay type: functional
# HeLa [13] = assay: Induction of apoptosis in human HeLa cells assessed as viable cells at 5 uM measured after 48 hrs by annexin V-FITC based propidium iodide dual staining based flow cytometry analysis (reference value: 81.7%); assay type: functional; conditions: read-out: Activity
# HeLa [14] = assay: Induction of cell cycle arrest in human HeLa cells assessed as accumulation of cells at subG1 phase at 1 uM measured after 48 hrs by propidium iodide staining based flow cytometry analysis (reference value: 6.8%); assay type: functional
# HeLa [15] = assay: Induction of apoptosis in human HeLa cells assessed as late apoptotic cells at 1 uM measured after 48 hrs by annexin V-FITC based propidium iodide dual staining based flow cytometry analysis (reference value: 3.5%); assay type: functional
# HeLa [16] = assay: Induction of cell cycle arrest in human HeLa cells assessed as accumulation of cells at S phase at 5 uM measured after 48 hrs by propidium iodide staining based flow cytometry analysis (reference value: 1.0%); assay type: functional
# K562 [17] = assay: Downregulation of EGFR expression in human K562 cells measured after 48 hrs by RT-qPCR analysis; assay type: functional, cell-based; conditions: dose 1-5 µM
# HeLa [18] = assay: Anticancer activity against human HeLa cells assessed as inhibition of cell growth measured after 48 hrs by MTT assay; assay type: functional, cell-based
# HepG2 = assay: Anticancer activity against human HepG2 cells assessed as inhibition of cell growth measured after 48 hrs by MTT assay; assay type: functional, cell-based; conditions: HepG2, 48 h
# HeLa [19] = assay: Induction of cell cycle arrest in human HeLa cells assessed as accumulation of cells at G2/M phase at 5 uM measured after 48 hrs by propidium iodide staining based flow cytometry analysis (reference value: 6.9%); assay type: functional
# HeLa [20] = assay: Induction of apoptosis in human HeLa cells assessed as late apoptotic cells at 5 uM measured after 48 hrs by annexin V-FITC based propidium iodide dual staining based flow cytometry analysis (reference value: 3.5%); assay type: functional
# HeLa [21] = assay: Induction of apoptosis in human HeLa cells assessed as necrotic cells at 1 uM measured after 48 hrs by annexin V-FITC based propidium iodide dual staining based flow cytometry analysis (reference value: 1.0%); assay type: functional
# HeLa [22] = assay: Induction of apoptosis in human HeLa cells assessed as nuclear condensation at 1 to 5 uM measured after 48 hrs by Hoechst staining based fluorescent microscopic analysis; assay type: functional, cell-based; conditions: dose 1-5 µM
# MCF7 = assay: Anticancer activity against human MCF7 cells assessed as inhibition of cell growth measured after 48 hrs by MTT assay; assay type: functional, cell-based; conditions: MCF7, 48 h
# K562 [23] = assay: Downregulation of MCL-1 expression in human K562 cells at 1 to 5 uM measured after 48 hrs by RT-qPCR analysis; assay type: functional, cell-based; conditions: dose 1-5 µM
# K562 [24] = assay: Downregulation of EGFR expression in human K562 cells at 1 to 5 uM measured after 48 hrs by RT-qPCR analysis; assay type: functional, cell-based; conditions: dose 1-5 µM
Structure (SMILES),IC50 (K562 [8]) [µM],IC50 (DU-145) [µM],IC50 (HeLa [18]) [µM],IC50 (HepG2) [µM],IC50 (MCF7) [µM],IC50 at 48 h [9] [µM],also measured
CC1(C)OC(=O)C(=Cc2cn(Cc3cn(-c4cc(Cl)cc(Cl)c4)nn3)c3ncccc23)C(=O)O1,26.8,37.8,25,49.4,25.4,> 100,
CC1(C)OC(=O)C(=Cc2cn(Cc3cn(-c4ccccc4Cl)nn3)c3ncccc23)C(=O)O1,16.1,15.4,12.8,21.9,18,> 100,
CC1(C)OC(=O)C(=Cc2cn(Cc3cn(-c4ccc(F)cc4)nn3)c3ncccc23)C(=O)O1,19.1,22.8,18.9,37,20.8,> 100,
COc1cc(-n2cc(Cn3cc(C=C4C(=O)OC(C)(C)OC4=O)c4cccnc43)nn2)cc(OC)c1OC,14.3,18.8,9.52,20.1,13.1,76.6,
CC1(C)OC(=O)C(=Cc2cn(Cc3cn(-c4ccc([N+](=O)[O-])cc4)nn3)c3ncccc23)C(=O)O1,21.4,27.7,19.4,30.1,25.8,> 100,
CC1(C)OC(=O)C(=Cc2cn(Cc3cn(-c4ccc(Cl)c(Cl)c4)nn3)c3ncccc23)C(=O)O1,20.2,33.8,16.6,26.1,24.2,> 100,
CC1(C)OC(=O)C(=Cc2cn(Cc3cn(-c4ccc(Cl)cc4)nn3)c3ncccc23)C(=O)O1,20.5,22.6,16.7,24.5,22.9,97.3,

# Continued by falling IC50 (K562 [8]), values first:
IC50 (K562 [8]) [µM],IC50 (DU-145) [µM],IC50 (HeLa [18]) [µM],IC50 (HepG2) [µM],IC50 (MCF7) [µM],Structure (SMILES),IC50 at 48 h [9] [µM],also measured
20.2,49.3,21.3,29.2,28.3,CC1(C)OC(=O)C(=Cc2cn(Cc3cn(-c4ccccc4)nn3)c3ncccc23)C(=O)O1,> 100,
19.1,22.6,10.3,27.8,19.9,CC1(C)OC(=O)C(=Cc2cn(Cc3cn(-c4ccc(Br)cc4F)nn3)c3ncccc23)C(=O)O1,90.8,
17.2,28.4,12.8,26.6,20.1,CC1(C)OC(=O)C(=Cc2cn(Cc3cn(-c4cccc(Cl)c4)nn3)c3ncccc23)C(=O)O1,> 100,
16.8,32.1,16.2,27.9,15.2,CC1(C)OC(=O)C(=Cc2cn(Cc3cn(-c4ccc(I)cc4)nn3)c3ncccc23)C(=O)O1,> 100,
16.4,33.8,15.9,42.1,36.1,COc1ccc(-n2cc(Cn3cc(C=C4C(=O)OC(C)(C)OC4=O)c4cccnc43)nn2)cc1,99.7,
14.5,14.7,9.68,28.4,20.2,COc1cc(OC)cc(-n2cc(Cn3cc(C=C4C(=O)OC(C)(C)OC4=O)c4cccnc43)nn2)c1,81.7,
12.5,15.4,6.87,29.1,7.32,CC1(C)OC(=O)C(=Cc2cn(Cc3cn(-c4ccc(Br)cc4)nn3)c3ncccc23)C(=O)O1,93.9,
6.03,12.4,4.44,9.97,6.67,Cc1ccc(-n2cc(Cn3cc(C=C4C(=O)OC(C)(C)OC4=O)c4cccnc43)nn2)cc1,> 100,Activity (HeLa [1]): 2.1%; Activity (HeLa [2]): 72.2%; viability at 1 µM (HeLa [3]): 79.2%; Activity (HeLa [4]): 3.1%; Activity (HeLa [5]): 20.7%; Activity (HeLa [6]): 39.7%; Activity (HeLa [7]): 39.1%; Activity (K562 [10]): Dose-Dependent Effect; Activity (HeLa [11]): 0.3%; Activity (HeLa [12]): 16.8%; viability at 5 µM (HeLa [13]): 55.4%; Activity (HeLa [14]): 6%; Activity (HeLa [15]): 2.5%; Activity (HeLa [16]): 2.7%; Activity (K562 [17]): Dose-Dependent Effect; Activity (HeLa [19]): 54.4%; Activity (HeLa [20]): 4.6%; Activity (HeLa [21]): 1.5%; Activity (HeLa [22]): Active
1.23,,,,1.48,COc1cccc2c1C(=O)c1c(O)c3c(c(O)c1C2=O)C[C@@](O)(C(=O)CO)C[C@@H]3O[C@H]1C[C@H](N)[C@H](O)[C@H](C)O1 [DOXORUBICIN],,Activity (HeLa [1]): 3%; Activity (K562 [23]): Active; Activity (HeLa [2]): 60%; viability at 1 µM (HeLa [3]): 75.6%; Activity (HeLa [4]): 3.7%; Activity (HeLa [5]): 34.2%; Activity (HeLa [6]): 30.3%; Activity (HeLa [7]): 40.3%; Activity (K562 [24]): Active; Activity (HeLa [11]): 0.5%; Activity (HeLa [12]): 19.6%; viability at 5 µM (HeLa [13]): 64.4%; Activity (HeLa [14]): 4.2%; Activity (HeLa [15]): 3.1%; Activity (HeLa [16]): 2.6%; Activity (HeLa [19]): 52.7%; Activity (HeLa [20]): 4.8%; Activity (HeLa [21]): 1.7%

# From ChEMBL document CHEMBL5634208, “Design and synthesis of Meldrum's acid based 7-azaindole anchored 1,2,3-triazole hybrids as anticancer agents” (RSC Med Chem, 2024)
